Data published in the supplement of paper PMC10307832.

Key:
Assay in all cases: relative viability (nuclei count vs DMSO), 5 days (fraction); higher = more cells survive
[1] = compound: C1CC2=C(C1)C=C(C=C2)OC3=NC(=C4C(=N3)N(C=N4)CC5=CC=C(C=C5)C6=CC=CC=C6)N[C@@H](CC7=CC=CC=C7)CO [QS11] + CS(=O)(=O)CCNCc1ccc(-c2ccc3ncnc(Nc4ccc(OCc5cccc(F)c5)c(Cl)c4)c3c2)o1 [Lapatinib] (partner 2 µM)
Procedure, shortened: (§1)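 Nuclei were stained with Hoechst during a one-step fixation (final 0.05% Triton X-100, 1% formaldehyde, 1 ug/ml Hoechst) carried out 5 days after dosing, then counted on 4× images. The cells, lung cancer lines in 1536-well plates, had been dosed by pin tool the day after seeding with one drug alone or a fixed anchor-drug dose plus five library-drug doses (not always all listed) in √10 steps. Relative viability is the nuclei count in treated wells divided by that in vehicle wells, and each value is the median of duplicate plates.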

[2] = compound: C1CC2=C(C1)C=C(C=C2)OC3=NC(=C4C(=N3)N(C=N4)CC5=CC=C(C=C5)C6=CC=CC=C6)N[C@@H](CC7=CC=CC=C7)CO [QS11] + NC(=O)Nc1cc(-c2cccc(F)c2)sc1C(=O)N[C@H]1CCCNC1 [AZD7762] (partner 0.2 µM)
Procedure, shortened: as §1

[3] = compound: C[As](C)SC[C@H](NC(=O)CC[C@H](N)C(=O)O)C(=O)NCC(=O)O [Darinaparsin] + CS(=O)(=O)N1CCN(Cc2cc3nc(-c4cccc5[nH]ncc45)nc(N4CCOCC4)c3s2)CC1 [Pictilisib] (partner 1 µM)
Procedure, shortened: as §1

[4] = compound: C1CC2=C(C1)C=C(C=C2)OC3=NC(=C4C(=N3)N(C=N4)CC5=CC=C(C=C5)C6=CC=CC=C6)N[C@@H](CC7=CC=CC=C7)CO [QS11] + CCNC(=O)c1noc(-c2cc(C(C)C)c(O)cc2O)c1-c1ccc(CN2CCOCC2)cc1 [Luminespib] (partner 0.01 µM)
Procedure, shortened: as §1

Cell Line	relative viability ([1]; first compound 0.08 µM)	relative viability ([1]; first compound 0.253 µM)	relative viability ([1]; first compound 2.53 µM)	relative viability ([1]; first compound 8 µM)	relative viability ([2]; first compound 0.08 µM)	relative viability ([2]; first compound 0.253 µM)	relative viability ([2]; first compound 2.53 µM)	relative viability ([2]; first compound 8 µM)	relative viability ([3]; first compound 0.08 µM)	relative viability ([3]; first compound 0.8 µM)	relative viability ([3]; first compound 2.53 µM)	relative viability ([3]; first compound 8 µM)	relative viability ([4]; first compound 0.08 µM)	relative viability ([4]; first compound 0.253 µM)	relative viability ([4]; first compound 0.8 µM)	relative viability ([4]; first compound 2.53 µM)	relative viability ([4]; first compound 8 µM)	relative viability ([1]; first compound 0.8 µM)	relative viability ([2]; first compound 0.8 µM)
HCC-366	0.97	0.992	0.67	0.246	0.28	0.259	0.271	0.192	0.108	0.13	0.158	0.162							
SK-MES-1	0.475	0.432	0.457	0.45					0.354	0.353	0.336	0.401	0.553	0.927	0.685	0.883	0.823	0.498	
NCI-H1703	0.986	1.41	0.974	1.1		0.12	0.121	0.168	0.236	0.271	0.261	0.268						1.04	0.121
SW 1573	1.02	1.14	1.05	1.2					0.621	0.545	0.49	0.495	0.239	0.239	0.198	0.21	0.235	1.1	
NCI-H2023	0.809	0.797	0.773	0.706					0.284	0.193	0.217	0.262	0.789	0.916	0.554	0.624	0.814	0.747	
NCI-H661	0.474	0.45	0.354	0.463					0.422	0.4	0.491	0.42	0.988	0.96	0.806	1.08	0.839	0.632	
Calu-6	1.11	1.07	1.31	1.12					1.2	0.801	0.924	0.988						0.969	
NCI-H1650	0.746	0.643	0.731	0.708					0.666	0.503	0.623	0.59	0.193	0.209	0.201	0.192	0.216	0.673	
IA-LM	1.13	1.02	0.589	0.596					0.414	0.408	0.949	0.313						0.513	
HCC-78	0.577	0.876	0.627	0.847	0.677	0.527	0.703	0.703	0.191	0.228	0.246	0.267						0.699	0.552
A549	1.04	1.14	0.886	0.764					0.601	0.517	0.344	0.653						0.621	
SK-LU-1	0.704	0.868	0.803	0.838					0.661	0.58	0.502	0.789	0.21	0.192	0.211	0.223	0.211	0.963	
EBC-1	0.233	0.198	0.211	0.207					0.393	0.359	0.433	0.288						0.194	
NCI-H1623													0.529	0.705	0.486	0.479	0.503		
NCI-H522					0.798	0.871	1.11	0.863					1.01	1.35	0.945	0.98	1.17		0.878
COR-L23	1.1	1.08	0.582	0.849					1.06	0.706	0.41	0.932	0.718	0.683	0.673	0.552	0.576	0.68	
NCI-H1299	1.02	0.933	0.917	0.712					1.03	0.882	0.751	0.808						0.807	
NCI-H520		1.05	0.99	1.13					0.287	0.339	0.241	0.277	0.25	0.369	0.228	0.231	0.209	0.863	
NCI-H1563	0.988	0.892	0.972	0.891					0.693	0.63	0.594	0.602	0.59	0.541	0.513	0.532	0.452	1.12	
SW 900					0.603	0.549	0.502	0.504					0.18	0.197	0.166	0.17	0.178		0.611
NCI-H2228	1.12	0.826	1.54	1.09					0.401	0.344	0.473	0.544	0.0998	0.191	0.154	0.14	0.145	1.17	
NCI-H441					1.02	1.39	0.964	0.942	0.566	0.498	0.424	0.548	0.376	0.286	0.329	0.315	0.328		0.963
